This note sets out measurements from patent US9587220B2, “Method for inducing cardiac differentiation of pluripotent stem cell” (Kyoto University, priority 2012, dated 2017).

The subject of test [1] is KY02111-induced cardiomyocytes (KY-CMs). As to the kind of experiment: qPCR of cardiac marker and ion channel genes in KY02111-induced cardiomyocytes. In kind it is cell-based, human. Particulars: Days 15 and 30. As to the method: Total RNA was isolated with an RNeasy Mini Kit (QIAGEN). Genomic DNA was completely digested with DNase I (Invitrogen). Total RNA (0.5 μg) was subjected to cDNA synthesis using the SuperScript III Reverse Transcriptase (Invitrogen). qRT-PCR was performed in triplicate, using SYBER GREEN PCR Master Mix on a 7500 Real Time PCR System (Applied Biosystems). The cycling conditions were as follows: 10 min at 95° C.; 40 cycles, each consisting of 15 s at 95° C.; 1 min at 60° C. Total RNA from human adult heart tissue (BioChain) was used to evaluate the expression levels of cardiac marker genes for cardiomyocytes derived from hPSCs. All values were normalized with respect to GAPDH expression level and expressed relative to the corresponding values in human adult hearts (100%).

The subject of test [2] is IMR90-1 hiPSCs. In words: Immunostaining of cardiac, pacemaker and fibroblast markers in differentiated hiPSCs. The format is cell-based, human. As to the method: Confluent hESCs and hiPSCs were gently detached with CTK solution and transferred into Petri dishes (BD Biosciences) with Primate ES Cell Culture Medium (ReproCELL, Japan). Cells were held in suspension culture for 8-24 h to form aggregates. The sizes of hPSC aggregates (0.3-1 mm in diameter) are important for efficient differentiation. Following suspension culture, cell aggregates were attached to culture dishes (3-10×10^5 cells cm^−2) in cardiac differentiation medium: IMDM (Sigma), containing 20% FBS (Gibco), 1% MEM non-essential amino acid solution (Sigma), 1% Penicillin-Streptomycin (Gibco), 2 mM L-glutamine (Sigma), 0.001% 2-Mercaptoethanol (Gibco), and 0.005N NaOH, with 10 ng ml^−1 BMP4 (R&D Systems). The medium was changed to cardiac differentiation medium with 10 μM KY02111 and/or other WNT inhibitors added on Day 3 (hiPSC lines) or Day 4 (human or monkey ESC lines); XAV939 (Wako, Japan), IWP-2 (Santa Cruz Biotechnology), IWR-1 (Merck4Bioscience), IGFBP4 (R&D Systems), Dkk1 (R&D Systems) and the mixture of bFGF (R&D Systems), BMP4 (R&D Systems), VEGF (R&D Systems), DKK1 (R&D Systems), and Activin A (R&D Systems) (Non-patent literature 16). Medium was changed every 2-3 d. KY02111 and other WNT inhibitors were added until Day 9 for hiPSC lines and the monkey ESC line, or Day 14 for hESC lines. On Day 15, cardiac cell colonies on dishes were incubated with protease solution (0.1% collagenase type I, 0.25% trypsin, 1 U ml^−1 DNase I, 116 mM NaCl, 20 mM HEPES, 12.5 mM NaH2PO4, 5.6 mM glucose, 5.4 mM KCl, and 0.8 mM MgSO4, pH 7.35) for 0.5-2 h, until all cardiac colonies were detached from the bottom of the wells. The detached cardiac colonies were transferred into 15 ml tubes with fresh cardiac differentiation medium and precipitated by gravity, and the supernatant was removed by aspiration. The cardiac colonies were then transferred into Ultra-low culture dishes (Corning, 3261) or 6-well plates (Corning, YO-01835-24) in cardiac differentiation medium without both serum and NaOH. The floating cardiac colonies were maintained for more than 1 month, and the media were changed every 5 d. A differentiation method of mouse ESC (R1 line) was carried out as previously described^46, and KY02111 was added during Days 3-6. Beating colonies were counted on Day 9.
Cardiac colonies were dissociated by stirring for 1-2 h at 37° C. with the protease solution described above, cultured for 1 d on cover glasses coated with gelatin (Sigma), and fixed with 4% paraformaldehyde. After permeabilizing with Triton X, the cells were treated with 2% skim milk for 1-2 h, then incubated with primary antibodies for 2 h: NKX2.5 (rabbit polyclonal, 1:250; Abcam), αActinin (mouse monoclonal, 1:800; Sigma), cardiac TnT (mouse monoclonal, 1:100; Santa Cruz Biotechnology), Vimentin (mouse monoclonal, 1:800; Sigma V6630), and HCN4 (mouse monoclonal, 1:400; Abcam). The secondary antibodies used were Alexa546-conjugated anti-mouse IgG, Alexa488-conjugated anti-mouse IgG, and Alexa488-conjugated anti-rabbit IgG (1:1000; all from Molecular Probes, Invitrogen). Nuclei were visualized by DAPI. Images were captured under fluorescent microscopy (Olympus). The number of cTnT, αActinin, NKX2.5, HCN4, and Vimentin-positive cells were counted from three random areas, using the Metamorph imaging system (Molecular Devices). […] Cells were analyzed using a FACS CantoII flow cytometer (BD Biosciences). Data was analyzed using FACADiva software (BD Biosciences).

Consider `COc1ccc(CCC(=O)Nc2nc3ccc(Cl)cc3s2)cc1OC` [KY02111, 2-(3-(3,4-dimethoxyphenyl)propanamide)-6-chlorobenzothiazole], for which the “expression of ion channel genes in KY-CMs relative to adult heart tissue” value in test [1] is reported as “equivalent to those of adult heart tissue”. Besides, in test [2] (data not shown), the “SMA (smooth muscle marker) expression” value is “almost undetectable”. Moreover, in test [2] (serum-containing medium), the Vimentin-positive ratio came to 20% and the “cells positive for pacemaker marker HCN4” value stood at 16%. Further, in test [2] (serum-containing medium, FIG. 10b), the cTnT-positive cells result is “approximately 80%”. In addition, the “decrease of ratio of Vimentin-positive cells (fibroblasts)” value in test [2] (versus DMSO) is given as 3.3 fold.
